Data on eleven compounds can be found in ChEMBL document CHEMBL1201862, “PubChem BioAssay data set” (2004).

Structures are written as SMILES.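 These data come from cells grown in 96-well plates and exposed to compound for 48 hours at five concentrations. At the GI50, growth is halved.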 Activity calls are given as the source filed them. Rule as the data show it: active = GI50 up to about 1.1 µM and inactive = higher.

Test systems include DU-145; CAKI-1; MDA-MB-231; NCI-H23; EKVX; SR; SK-MEL-2; RXF 393; HCT-15; K562; SF-539; OVCAR-3; OVCAR-5; PC-3; 786-0; IGROV-1; OVCAR-4; NCI-H226; CCRF-CEM; HCC 2998.
Common to all, as to assay: inhibition of tumour cell growth, NCI panel, 48 h

In the case of `COC(=O)c1ccc(/C=C(\c2ccc([N+](=O)[O-])o2)S(=O)(=O)c2ccc(NC(C)=O)cc2)o1`, the GI50 is 10.1 µM (inactive) in the test with DU-145; 15.4 µM (inactive) in the test on CAKI-1; 2.01 µM (inactive) in the test with MDA-MB-231; 13.9 µM (inactive) in the test with NCI-H23; 11.9 µM (inactive) with EKVX; 1.77 µM (inactive) in the test on SR. Besides, the GI50 is 15.9 µM (inactive) in the test with SK-MEL-2; 3.69 µM (inactive) with RXF 393; 2.45 µM with HCT-15; 4.15 µM (inactive) in the test on K562; 4.2 µM (inactive) in the test with SF-539; 5.9 µM (inactive) with OVCAR-3. Further, the GI50 is 3.8 µM (inactive) with OVCAR-5; 14.8 µM (inactive) in the test with PC-3; 3.43 µM (inactive) in the test with 786-0; 12.9 µM (inactive) in the test on IGROV-1; 2.22 µM (inactive) with OVCAR-4; 3.04 µM (inactive) in the test on NCI-H226.

In the case of `CC(=O)/N=C1\NC(=O)/C(=C/c2ccc(Cl)cc2Cl)N1C`, the GI50 was 60.4 µM (inactive) with DU-145; > 100 µM (inactive) in the test with CAKI-1; 74.6 µM (inactive) in the test with MDA-MB-231; > 100 µM (inactive) with NCI-H23; 1.02 µM (active) in the test on EKVX; > 100 µM (inactive) in the test on SK-MEL-2. Also, the GI50 in the test on RXF 393 was 75 µM (inactive); in the test on HCT-15 it was 27.9 µM; in the test on SF-539 it was 77.4 µM (inactive); in the test on OVCAR-3, 96.4 µM (inactive); in the test with OVCAR-5, > 100 µM (inactive); in the test with PC-3 it was > 100 µM (inactive). Also, the GI50 was 56.4 µM (inactive) in the test on 786-0; 32.6 µM (inactive) in the test with IGROV-1; 3.44 µM (inactive) in the test on CCRF-CEM; > 100 µM (inactive) in the test on HCC 2998; 55.1 µM (inactive) in the test with OVCAR-4; 6.81 µM (inactive) in the test with NCI-H226.

For the compound `CO/C(N)=C(C#N)/N=C/c1cccnc1`, the GI50 in the test on DU-145 was > 100 µM (inactive); in the test on CAKI-1, 71.9 µM (inactive); in the test with MDA-MB-231, > 100 µM (inactive); with NCI-H23 it was > 100 µM (inactive); in the test on EKVX it was > 100 µM (inactive); in the test with SK-MEL-2, > 100 µM (inactive). The GI50 with RXF 393 was > 100 µM (inactive); in the test with HCT-15 it was greater than 100 µM; in the test with K562 it was > 100 µM (inactive); in the test with SF-539, > 100 µM (inactive); in the test on OVCAR-3, > 100 µM (inactive); with OVCAR-5, > 100 µM (inactive). Also, the GI50 in the test on PC-3 was > 100 µM (inactive); with 786-0 it was > 100 µM (inactive); in the test with IGROV-1 it was > 100 µM (inactive); with CCRF-CEM, 35.8 µM (inactive); in the test on HCC 2998 it was > 100 µM (inactive); with OVCAR-4, > 100 µM (inactive). Besides, the GI50 with NCI-H226 was > 100 µM (inactive).

For `CN(C)c1ccc(/C=C(\NC(=O)c2ccccc2)C(=O)Nc2ccccc2C(=O)NCc2ccccc2)cc1`, the GI50 with DU-145, in the test with CAKI-1, in the test with MDA-MB-231, in the test with NCI-H23, in the test with EKVX and with SK-MEL-2 was > 100 µM (inactive) throughout. In addition, the GI50 in the test with RXF 393 was > 100 µM (inactive); in the test on HCT-15, greater than 100 µM; in the test with K562 it was > 100 µM (inactive); with SF-539, 66.5 µM (inactive); with OVCAR-3, > 100 µM (inactive); in the test with OVCAR-5 it was > 100 µM (inactive). Moreover, the GI50 with PC-3 is > 100 µM (inactive); in the test with 786-0, > 100 µM (inactive); in the test with IGROV-1, > 100 µM (inactive); in the test on CCRF-CEM, 62.4 µM (inactive); with HCC 2998, > 100 µM (inactive); with OVCAR-4, 58.2 µM (inactive). Besides, the GI50 with NCI-H226 was 50.8 µM (inactive).

Consider `CC(C)[Si](OC12CCC(CC1O)CC2C(=O)O)(C(C)C)C(C)C` (stereo unspecified), for which the GI50 is 14.2 µM (inactive) with DU-145; 19.1 µM (inactive) with CAKI-1; 14.7 µM (inactive) in the test with MDA-MB-231; 15.5 µM (inactive) with NCI-H23; 23.2 µM (inactive) in the test on SR; 14.6 µM (inactive) in the test with SK-MEL-2. The GI50 with HCT-15 was 12.4 µM; in the test with K562, 31.6 µM (inactive); in the test on SF-539 it was 27.4 µM (inactive); in the test on OVCAR-3 it was 14.8 µM (inactive); in the test with OVCAR-5, 14 µM (inactive); in the test on PC-3, 12.5 µM (inactive). Besides, the GI50 was 11 µM (inactive) in the test with 786-0, 13.1 µM (inactive) in the test on CCRF-CEM, 12.6 µM (inactive) in the test with OVCAR-4 and 12 µM (inactive) with NCI-H226.

Turning to `Cc1ccc([N+](=O)[O-])cc1S(=O)(=O)Nc1ccc(C2=NN(c3ccc([N+](=O)[O-])cc3[N+](=O)[O-])C(c3cccs3)C2)cc1` (stereo unspecified), the GI50 was 25.8 µM (inactive) with DU-145; 25.5 µM (inactive) with CAKI-1; 15 µM (inactive) in the test with MDA-MB-231; 18.7 µM (inactive) in the test on NCI-H23; 15.8 µM (inactive) in the test on EKVX; 21 µM (inactive) with SR. Also, the GI50 in the test on SK-MEL-2 is 12.1 µM (inactive); in the test on RXF 393 it was 18.6 µM (inactive); with HCT-15, 15.4 µM; in the test with K562 it was 17.2 µM (inactive); in the test with SF-539, 27 µM (inactive); in the test on OVCAR-3, 16.1 µM (inactive). Besides, the GI50 is 43.9 µM (inactive) in the test with OVCAR-5; 25.9 µM (inactive) with PC-3; 17.1 µM (inactive) in the test with 786-0; 16.2 µM (inactive) in the test with IGROV-1; 24.5 µM (inactive) in the test on CCRF-CEM; 18.5 µM (inactive) in the test on OVCAR-4. Besides, in the test on NCI-H226, the GI50 was 22.2 µM (inactive).

Turning to `O=C(O)CSc1nnc(COc2ccc(Cl)cc2)n1-c1ccccc1`, the GI50 in the test with DU-145, in the test on CAKI-1, with MDA-MB-231, in the test on NCI-H23, in the test on EKVX and in the test on SK-MEL-2 was > 100 µM (inactive) in each case. The GI50 is > 100 µM (inactive) with RXF 393; greater than 100 µM with HCT-15; > 100 µM (inactive) in the test with K562; > 100 µM (inactive) in the test on OVCAR-3; > 100 µM (inactive) with OVCAR-5; > 100 µM (inactive) in the test with PC-3. The GI50 with 786-0, with IGROV-1, with CCRF-CEM, with HCC 2998, in the test on OVCAR-4 and in the test on NCI-H226 was > 100 µM (inactive) each time.

On to `NCC(=O)NC(CO)C(=O)O` (stereo unspecified), for which the GI50 with DU-145, with CAKI-1, in the test with MDA-MB-231, in the test on NCI-H23, in the test on EKVX and in the test on SK-MEL-2 was > 100 µM (inactive) in each case. The GI50 is > 100 µM (inactive) with RXF 393; greater than 100 µM in the test with HCT-15; > 100 µM (inactive) in the test with K562; > 100 µM (inactive) in the test with SF-539; > 100 µM (inactive) in the test with OVCAR-3; > 100 µM (inactive) with OVCAR-5. Besides, the GI50 in the test on PC-3, in the test on 786-0, in the test with IGROV-1, with CCRF-CEM, with HCC 2998 and in the test with OVCAR-4 was > 100 µM (inactive) each time. Also, in the test with NCI-H226, the GI50 was > 100 µM (inactive).

As for `Cc1cc(S(=O)(=O)Nc2nc(N)n[nH]2)c(Cl)cc1Cl`, the GI50 with DU-145, in the test on CAKI-1, with MDA-MB-231, in the test with NCI-H23, with EKVX and with SK-MEL-2 was > 10 µM (inactive) each time. Further, the GI50 with RXF 393 is > 10 µM (inactive); with HCT-15, greater than 10 µM; in the test with K562, > 10 µM (inactive); in the test on SF-539 it was > 10 µM (inactive); in the test on OVCAR-3, > 10 µM (inactive); with OVCAR-5, > 10 µM (inactive). Moreover, the GI50 in the test with PC-3, in the test on 786-0, in the test with IGROV-1, in the test with CCRF-CEM, in the test on HCC 2998 and with OVCAR-4 was > 10 µM (inactive) throughout. For the same compound, the GI50 in the test on NCI-H226 was > 10 µM (inactive).

On to `CCc1nc2cc(F)ccc2[nH]c1=O`, for which the GI50 is 65.5 µM (inactive) with DU-145; > 100 µM (inactive) with CAKI-1; > 100 µM (inactive) in the test on MDA-MB-231; > 100 µM (inactive) in the test on NCI-H23; 2.34 µM (inactive) in the test with EKVX; > 100 µM (inactive) in the test with SK-MEL-2. Also, the GI50 was 27.9 µM (inactive) with RXF 393; greater than 100 µM in the test with HCT-15; > 100 µM (inactive) with K562; > 100 µM (inactive) with SF-539; > 100 µM (inactive) in the test with OVCAR-3; > 100 µM (inactive) with OVCAR-5. For the same compound, the GI50 in the test with PC-3, with 786-0, with CCRF-CEM, in the test with HCC 2998, in the test with OVCAR-4 and with NCI-H226 was > 100 µM (inactive) throughout.

For `Brc1cccc[n+]1-c1ccc2cc(-[n+]3ccccc3Br)ccc2c1`, the GI50 with DU-145 is 14.8 µM (inactive); with CAKI-1 it was > 100 µM (inactive); in the test with MDA-MB-231, 24.2 µM (inactive); in the test with NCI-H23, > 100 µM (inactive); in the test on EKVX, 47.6 µM (inactive); in the test on SK-MEL-2 it was 32.2 µM (inactive). The GI50 was 32 µM (inactive) with RXF 393; 32.5 µM with HCT-15; 59.2 µM (inactive) with K562; 19.3 µM (inactive) in the test with SF-539; 19.8 µM (inactive) with OVCAR-3; 39.8 µM (inactive) in the test with OVCAR-5. Besides, the GI50 in the test on PC-3 is > 100 µM (inactive); in the test with 786-0, 26.4 µM (inactive); with IGROV-1, 11.4 µM (inactive); in the test with CCRF-CEM, 34.1 µM (inactive); with HCC 2998, 46.1 µM (inactive); in the test with NCI-H226 it was > 100 µM (inactive).
